Test results reported in PMC10350920, “Development of a 2,4-Diaminothiazole Series for the Treatment of Human African Trypanosomiasis Highlights the Importance of Static–Cidal Screening of Analogues” (Journal of Medicinal Chemistry, 2023).
Where two headings read alike, the source gives them in different places.

How the values were obtained:
[1] = test system: BSF T. b. brucei “single marker” S427; assay: Drug sensitivity assay with bloodstream-form T. brucei; type: cell-based; details: for EC50: mean values, number of replicates in parentheses; for reduction (loss, drop off) in potency against T. brucei relative to parent analogue: SAR comparison
Method: (§1) Drug sensitivity assays with BSF T. b. brucei “single marker” S427 and human MRC-5 fibroblasts were conducted as previously described.[43]

[2] = Mammalian cell counter screen (MRC-5); type: cell-based, human; details: human, MRC-5 fibroblasts; mean values; number of replicates in parentheses
Method: as §1

[3] = test system: human MRC-5 fibroblasts; assay: Mammalian cell counter screen (MRC-5); type: cell-based; details: for SI: selectivity index (EC50 MRC5/EC50 T. brucei)
Method: as §1

[4] = Mouse liver microsomal intrinsic clearance; type: in vitro ADME
Method: Test compounds (0.5 μM) were incubated with female CD1 mouse liver microsomes (Xenotech LLC; 0.5 mg mL^–1 50 mM potassium phosphate buffer, pH 7.4), and the reaction started with the addition of excess NADPH (8 mg mL^–1 50 mM potassium phosphate buffer, pH 7.4). Immediately, at 0 min, and then at 3, 6, 9, 15, and 30 min, an aliquot (50 μL) of the incubation mixture was removed and mixed with acetonitrile (100 μL) to stop the reaction. The internal standard was added to all samples, the samples were centrifuged to sediment the precipitated protein, and the plates were then sealed prior to UPLC–MS/MS analysis using a Quattro Premier XE (Waters Corporation, USA). XLfit (IDBS, UK) was used to calculate the exponential decay and consequently the rate constant (k) from the ratio of the peak area of the test compound to the internal standard at each time point. The rate of intrinsic clearance (CLint) of each test compound was then calculated using the following calculation [drawing 3] where V (mL mg^–1 protein) is the incubation volume mg^–1 protein added and the microsomal protein yield is taken as 52.5 mg protein g^–1 liver. Verapamil (0.5 μM) was used as a positive control to confirm acceptable assay performance.

[5] = Rat microsomal intrinsic clearance; type: in vitro ADME; details: second value of mouse/rat cell

| Compound | EC50 ([1]; Trypanosoma brucei) | EC50 [2] | SI [3] | CLint (mouse) [4] | CLint (rat) [5] | EC50 [1] | EC50 ([3]; mean values, number of replicates in parentheses, read-out: MRC-5 EC50) | reduction (loss, drop off) in potency against T. brucei relative to parent analogue [1] | EC50 [3] |
| --- | --- | --- | --- | --- | --- | --- | --- | --- | --- |
| Nc1nc(NC2CCCCC2)sc1C(=O)c1ccc(C(F)(F)F)cc1 [Compound 23, (4-Amino-2-(cyclohexylamino)thiazol-5-yl)(4-(trifluoromethyl)phenyl)methanone] | 660 nM | 37 µM | 56 | 1.4 mL·min/g |  |  |  |  |  |
| CC(OCC(=O)c1sc(Nc2ccc(F)c(F)c2)nc1N)C(F)(F)F (stereo not drawn) [Compound 50, 1-(4-Amino-2-((3,4-difluorophenyl)amino)thiazol-5-yl)-2-((1,1,1-trifluoropropan-2-yl)oxy)ethanone] | 6 nM | > 50 µM | 8333 | 7.4 mL·min/g | 2.9 mL·min/g |  |  |  |  |
| Nc1nc(NC2CCCCC2)sc1C(=O)c1ccc(F)c(F)c1 [Compound 30, (4-Amino-2-(cyclohexylamino)thiazol-5-yl)(3,4-difluorophenyl)methanone] | 50 nM | 42 µM | 840 | 12 mL·min/g |  |  |  |  |  |
| Cc1ccc(C(=O)c2sc(NC3CCCCC3)nc2N)cc1 [Compound 24, (4-Amino-2-(cyclohexylamino)thiazol-5-yl)(p-tolyl)methanone] | 280 nM | > 50 µM | >179 |  |  |  |  |  |  |
| CC(C)OCCC(=O)c1sc(Nc2ccc(F)c(F)c2)nc1N [Compound 45, 1-(4-Amino-2-((3,4-difluorophenyl)amino)thiazol-5-yl)-3-isopropoxypropan-1-one] | 2600 nM | > 50 µM | 19 |  |  |  |  |  |  |
| CC(C)(C)OCC(=O)c1sc(Nc2ccc(F)c(F)c2)nc1N [Compound 43, 1-(4-Amino-2-((3,4-difluorophenyl)amino)thiazol-5-yl)-2-(tert-butoxy)ethanone] | 100 nM | > 50 µM | 500 |  |  |  |  |  |  |
| Nc1nc(NC2CCCCC2)sc1C(=O)c1ccccc1C(F)(F)F [Compound 28] | 390 nM | 1.9 µM | 5 | 14 mL·min/g |  |  |  |  |  |
| Nc1nc(Nc2ccc(F)c(F)c2)sc1C(=O)COC1CCC1 [Compound 46, 1-(4-Amino-2-((3,4-difluorophenyl)amino)thiazol-5-yl)-2-cyclobutoxyethanone] | 20 nM | > 50 µM | 2500 | 9 mL·min/g | 8.2 mL·min/g |  |  |  |  |
| Nc1nc(NC2CCCCC2)sc1C(=O)c1ccncc1 [Compound 25, (4-Amino-2-(cyclohexylamino)thiazol-5-yl)(pyridine-4-yl)methanone] | 460 nM | 19 µM | 41 | 4.1 mL·min/g |  |  |  |  |  |
| COC(C)(C)C(=O)c1sc(NC2CCCCC2)nc1N [Compound 17, 1-(4-Amino-2-(cyclohexylamino)thiazol-5-yl)-2-methoxy-2-methylpropan-1-one] | 1900 nM | > 50 µM | >26 | 3.8 mL·min/g |  |  |  |  |  |
| Nc1nc(NC2CCCCC2)sc1C(=O)c1ccc(F)cc1 [Compound 22, (4-Amino-2-(cyclohexylamino)thiazol-5-yl)(4-fluorophenyl)methanone] | 50 nM | 21 µM | 420 | 4.9 mL·min/g |  |  |  |  |  |
| Nc1nc(Nc2ccc(F)c(F)c2)sc1C(=O)COC(CF)CF [Compound 48, 1-(4-Amino-2-((3,4-difluorophenyl)amino)thiazol-5-yl)-2-((1,3-difluoropropan-2-yl)oxy)ethanone] | 50 nM | > 50 µM | 1000 |  |  |  |  |  |  |
| Nc1nc(NC2CCCCC2)sc1C(=O)c1c(Cl)cccc1Cl [Compound 21, (4-Amino-2-(cyclohexylamino)thiazol-5-yl)(2,6-dichlorophenyl)methanone] | 140 nM | 4.8 µM | 34 | 4.1 mL·min/g |  |  |  |  |  |
| Nc1nc(Nc2ccc(F)c(F)c2)sc1C(=O)COC(C(F)(F)F)C(F)(F)F [Compound 49, 1-(4-Amino-2-((3,4-diflurorophenyl)amino)thiazol-5-yl)-2-(((1,1,1,3,3,3)-hexafluoropropan-2-yl)oxy)ethanone] | 20 nM | 13 µM | 650 |  |  |  |  |  |  |
| COC(C)(C)CC(=O)c1sc(Nc2ccc(F)c(F)c2)nc1N [Compound 39, 1-(4-Amino-2-((3,4-difluorophenyl)amino)thiazol-5-yl)-3-methoxy-3-methylbutan-1-one] | 210 nM | > 50 µM | 238 | 6.1 mL·min/g |  |  |  |  |  |
| Nc1nc(Nc2ccc(F)c(F)c2)sc1C(=O)CN1CCOCC1 [Compound 62, 1-(4-Amino-2-((3,4-difluorophenyl)amino)thiazol-5-yl)-2-morpholinoethanone] | 40 nM | > 50 µM |  | 4.7 mL·min/g | 9 mL·min/g |  |  |  |  |
| Nc1nc(NC2CCCCC2)sc1C(=O)c1ccccc1F [Compound 27, (4-Amino-2-(cyclohexylamino)thiazol-5-yl)(2-fluorophenyl)methanone] | 70 nM |  | 29 | 9.7 mL·min/g |  |  |  |  |  |
| Nc1nc(NC2CCCCC2)sc1C(=O)c1ccc(F)cc1F [Compound 29, (4-Amino-2-(cyclohexylamino)thiazol-5-yl)(2,4-difluorophenyl)methanone] | 50 nM | 6.4 µM | 128 | 6.5 mL·min/g |  |  |  |  |  |
| CC(C)CC(=O)c1sc(Nc2ccc(F)cc2)nc1N [Compound 36, 1-(4-Amino-2-((4-fluorophenyl)amino)thiazol-5-yl)-3-methylbutan-1-one] | 110 nM | > 50 µM | >455 | 8.0 mL·min/g |  |  |  |  |  |
| 1-(4-Amino-2-((3,4-difluorophenyl)amino)thiazol-5-yl)-2-((2S,6R)-2,6-dimethylmorpholino)ethanone [Compound 63] |  |  | 1000 | 8.1 mL·min/g | 4.9 mL·min/g | 50 nM | > 50 µM |  |  |
| Nc1nc(NC2CCCCC2)sc1C(=O)C1CCC1 [Compound 19, (4-Amino-2-(cyclohexylamino)thiazol-5-yl)cyclobutylmethanone] | 370 nM | 13 µM |  | 21 mL·min/g |  |  |  |  |  |
| Nc1nc(NC2CCCCC2)sc1C(=O)C1CCCCC1 [Compound 20, (4-Amino-2-(cyclohexylamino)thiazol-5-yl) (cyclohexyl)methanone] | 150 nM | 41 µM | 273 | 8.9 mL·min/g |  |  |  |  |  |
| O=C(c1cnc(NC2CCCCC2)s1)C1CCCCC1 [Compound 32, Cyclohexyl(2-(cyclohexylamino)thiazole-5-yl)methanone] | 18000 nM | 49 µM | 3 | 15 mL·min/g |  |  |  | > 20 fold |  |
| CC(C)(C)CC(=O)c1sc(Nc2ccc(F)c(F)c2)nc1N [Compound 40, 1-(4-Amino-2-((3,4-difluorophenyl)amino)thiazol-5-yl)-3,3-dimethylbutan-1-one] | 150 nM | > 50 µM | >333 | 4.6 mL·min/g |  |  |  |  |  |
| Nc1nc(Nc2ccccc2)sc1C(=O)c1ccc(F)cc1 [Compound 35, (4-Amino-2-(phenylamino)thiazol-5-yl)(4-fluorophenyl)methanone] | 190 nM | > 50 µM | >263 | 7.3 mL·min/g |  |  |  |  |  |
| O=C(c1cnc(NC2CCCCC2)s1)c1c(F)cccc1F [Compound 33, (2-(Cyclohexylamino)thiazol-5-yl)(2,6-difluorophenyl)methanone] | 15000 nM | 47 µM | 3 |  |  |  |  | > 20 fold |  |
| Nc1nc(NC2CCCCC2)sc1C(=O)c1cc(F)cc(F)c1 [Compound 31, (4-Amino-2-(cyclohexylamino)thiazol-5-yl)(3,5-difluorophenyl)methanone] | 160 nM | 3.1 µM | 19 | 3.6 mL·min/g |  |  |  |  |  |
| CCOCC(=O)c1sc(Nc2ccc(F)c(F)c2)nc1N [Compound 44, 1-(4-Amino-2-((3,4-difluorophenyl)amino)thiazol-5-yl)-2-ethoxyethanone] | 150 nM | > 50 µM | 333 |  |  |  |  |  |  |
| 1-(4-Amino-2-((3-(difluoromethoxy)phenyl)amino)thiazol-5-yl)-2-((1,1,1-trifluoropropan-2-yl)oxy)ethanone [Compound 54] |  |  | 2500 |  |  | 20 nM |  |  | > 50 µM |
| CC(C)(F)CC(=O)c1sc(Nc2ccc(F)c(F)c2)nc1N [Compound 41, 1-(4-Amino-2-((3,4-difluorophenyl)amino)thiazol-5-yl)-3-fluoro-3-methylbutan-1-one] | 560 nM | 46 µM | 82 |  |  |  |  |  |  |
